Assay results as given in patent publication US10987336B2, “Method of preventing or treating side effect of tumor therapy” (priority 2018, dated 2021).
Like-named read-outs stand apart in the source and are kept apart here.

How the values were obtained:
[1] = system: HUVEC cells; experiment: CCK-8 cell survival: ameliorating proliferative toxicity of VEGF/VEGFR inhibitor (Examples 4-15); type: cell-based; conditions: agent 100 μM, 24-48 h
[2] = system: HaCaT cells; type: cell-based, human
[3] = system: HUVEC cells; type: cell-based; conditions: Sorafenib (V1) 10 μM + agent 50 μM, 24 hours, CCK-8
[4] = system: Calmodulin (CaM); experiment: Western Blot expression level in HaCaT cells (Example 147); type: cell-based, human; conditions: 24 hours, compared with the control group
Protocol: In the present application, compared effect of the nitric oxide releasing agent with calcium channel blocker on expression levels of calmodulin and calreticulin in HaCat cell The cultured HaCaT cells were digested, suspended, counted, and seeded into a 6-well plate with 200,000 cells per well. After the cells were attached, a nitric oxide releasing agent (or calcium channel blocker) solution was added to achieve a particular final concentration. A basic medium was added into the control group. At 24 hours after administration of the nitric oxide releasing agent (or calcium channel blocker), RIPA lysate [MUT], Beyotime Biotechnology) was used to extract protein. The change of expressions of calmodulin and calreticulin was determined by Western Blot. […] Image Lab was used to analyze the gray value results. GraphPad Prism 6.0 Software and t-test were used to carry out a statistic analysis of the results and plot a graph. Of those, represents P<0.001, ** represents P<0.01, * represents P<0.05, indicating a significant difference as compared with the corresponding control group; as statistically analyzed by using t-test.

[5] = HaCaT, Sorafenib (V1) 10 μM + agent 50 μM, 24 hours, CCK-8

| SMILES | Cell Survival Rate (viable cells increased vs VEGF/VEGFR inhibitor group) ([1]; Regorafenib 10 μM) | Cell Survival Rate (viable cells increased vs VEGF/VEGFR inhibitor group) ([1]; Sorafenib 5 μM) | Cell Survival Rate (viable cells increased vs VEGF/VEGFR inhibitor group) ([1]; Sunitinib 5 μM) | Cell Survival Rate (viable cells increased vs VEGF/VEGFR inhibitor group) ([1]; Apatinib 10 μM) | Cell Survival Rate (viable cells increased vs VEGF/VEGFR inhibitor group) ([1]; Axitinib 10 μM) | Cell Survival Rate (viable cells increased vs VEGF/VEGFR inhibitor group) ([1]; Lenvatinib Mesylate 10 μM) | Cell Survival Rate (viable cells increased vs VEGF/VEGFR inhibitor group) ([1]; Nintedanib Esylate 10 μM) | Cell Survival Rate (viable cells increased vs VEGF/VEGFR inhibitor group) ([1]; Pazopanib Hydrochloride 10 μM) | Cell Survival Rate (viable cells increased vs VEGF/VEGFR inhibitor group) ([1]; Thalidomide 10 μM) | also measured |
| --- | --- | --- | --- | --- | --- | --- | --- | --- | --- | --- |
| NCCN(CCN)/[N+]([O-])=N/O [3,3-Bis (aminoethyl)-1-hydroxy-2-oxo-1-triazene] | Increased by 15-20% | Increased by 35-45% | Increased by 20-30% | – | – | – | – | – | – | – |
| N=c1c[n+](N2CCOCC2)[n-]o1 [3-morpholinosydnonimine] | Increased by 15-20% | Increased by 30-40% | Increased by 10-20% | – | – | – | – | – | – | – |
| CC(C)CCON=O [Isoamyl Nitrite] | Increased by 15-20% | Increased by 30-40% | Increased by 20-25% | Increased by 40-50% | Increased by 20-30% | Increased by 30-50% | Increased by 30-50% | Increased by 20-30% | Increased by 20-30% | – |
| O=[N+]([O-])O[C@H]1CO[C@H]2[C@@H]1OC[C@H]2O[N+](=O)[O-] [Isosorbide Dinitrate] | – | – | – | – | – | – | – | – | – | Cell Survival Rate (percentage of viable cells increased as compared to the VEGF/VEGFR inhibitor group) [2, 5]: by 20-50% |
| O=[N+]([O-])O[C@@H]1CO[C@H]2[C@@H]1OC[C@@H]2O [Isosorbide Mononitrate] | Increased by 20-30% | Increased by 30-35% | Increased by 20-25% | – | – | – | – | – | – | Cell Survival Rate (percentage of viable cells increased as compared to the VEGF/VEGFR inhibitor group) [2, 5]: by 20-50%; Cell Survival Rate (percentage of viable cells increased as compared to the VEGF/VEGFR inhibitor group) [3]: by 20-40% |
| CCOC(=O)[N-]c1cn(N2CCOCC2)n[o+]1 [Molsidomine] | Increased by 20-30% | Increased by 30-40% | Increased by 20-30% | Increased by 40-50% | Increased by 20-30% | Increased by 30-50% | Increased by 30-50% | Increased by 20-30% | Increased by 20-30% | – |
| O=C(NCCO[N+](=O)[O-])c1cccnc1 [Nicorandil] | Increased by 20-30% | Increased by 50-60% | Increased by 10-20% | Increased by 40-50% | Increased by 20-30% | Increased by 30-50% | Increased by 30-50% | Increased by 20-30% | Increased by 20-30% | – |
| O=[N+]([O-])OCC(CO[N+](=O)[O-])O[N+](=O)[O-] [Nitroglycerin] | – | – | – | – | – | – | – | – | – | Cell Survival Rate (percentage of viable cells increased as compared to the VEGF/VEGFR inhibitor group) [2]: by 20-40%; Cell Survival Rate (percentage of viable cells increased as compared to the VEGF/VEGFR inhibitor group) [3]: by 25-50% |
| CCCc1nn(C)c2c(=O)[nH]c(-c3cc(S(=O)(=O)N4CCN(C)CC4)ccc3OCC)nc12 [Sildenafil] | No significant change | No significant change | No significant change | – | – | – | – | – | – | – |
| COc1ccc([C@@H]2Sc3ccccc3N(CCN(C)C)C(=O)[C@@H]2OC(C)=O)cc1 [diltiazem] | – | – | – | – | – | – | – | – | – | expression level of calmodulin (CaM), gray value analysis [4]: decreased significantly |
